Laboratory results from ChEMBL document CHEMBL5537119 (Eur J Med Chem, 2024).

Assays:
THP-1 [1] = test: Inhibition of Class I/IIb HDAC in human THP-1 cells at 100 uM preincubated for 18 hrs followed by substrate addition and measured after 3 hrs by fluorescence based microplate reader assay relative to control; assay type: cell-based; conditions: time 21.0 hrs
Histone deacetylase 2 = Histone deacetylase 2 (Homo sapiens, UniProt Q92769); test: Inhibition of human recombinant HDAC2 using Boc-Lys(Ac)-AMC as substrate preincubated for 5 mins followed by substrate addition and measured after 90 mins by fluorescence based microplate reader analysis
[2] = Inhibition of Class I/IIb HDAC in human THP-1 cells preincubated for 18 hrs followed by substrate addition and measured after 3 hrs by fluorescence based microplate reader assay; assay type: cell-based
[3] = target: T1, Protein deacetylase HDAC6 (Homo sapiens, UniProt Q9UBN7); test: Inhibition of human recombinant HDAC6 using Boc-Lys(Ac)-AMC as substrate preincubated for 5 mins followed by substrate addition and measured after 90 mins by fluorescence based microplate reader analysis
T1 sequence (Q9UBN7 whole entry): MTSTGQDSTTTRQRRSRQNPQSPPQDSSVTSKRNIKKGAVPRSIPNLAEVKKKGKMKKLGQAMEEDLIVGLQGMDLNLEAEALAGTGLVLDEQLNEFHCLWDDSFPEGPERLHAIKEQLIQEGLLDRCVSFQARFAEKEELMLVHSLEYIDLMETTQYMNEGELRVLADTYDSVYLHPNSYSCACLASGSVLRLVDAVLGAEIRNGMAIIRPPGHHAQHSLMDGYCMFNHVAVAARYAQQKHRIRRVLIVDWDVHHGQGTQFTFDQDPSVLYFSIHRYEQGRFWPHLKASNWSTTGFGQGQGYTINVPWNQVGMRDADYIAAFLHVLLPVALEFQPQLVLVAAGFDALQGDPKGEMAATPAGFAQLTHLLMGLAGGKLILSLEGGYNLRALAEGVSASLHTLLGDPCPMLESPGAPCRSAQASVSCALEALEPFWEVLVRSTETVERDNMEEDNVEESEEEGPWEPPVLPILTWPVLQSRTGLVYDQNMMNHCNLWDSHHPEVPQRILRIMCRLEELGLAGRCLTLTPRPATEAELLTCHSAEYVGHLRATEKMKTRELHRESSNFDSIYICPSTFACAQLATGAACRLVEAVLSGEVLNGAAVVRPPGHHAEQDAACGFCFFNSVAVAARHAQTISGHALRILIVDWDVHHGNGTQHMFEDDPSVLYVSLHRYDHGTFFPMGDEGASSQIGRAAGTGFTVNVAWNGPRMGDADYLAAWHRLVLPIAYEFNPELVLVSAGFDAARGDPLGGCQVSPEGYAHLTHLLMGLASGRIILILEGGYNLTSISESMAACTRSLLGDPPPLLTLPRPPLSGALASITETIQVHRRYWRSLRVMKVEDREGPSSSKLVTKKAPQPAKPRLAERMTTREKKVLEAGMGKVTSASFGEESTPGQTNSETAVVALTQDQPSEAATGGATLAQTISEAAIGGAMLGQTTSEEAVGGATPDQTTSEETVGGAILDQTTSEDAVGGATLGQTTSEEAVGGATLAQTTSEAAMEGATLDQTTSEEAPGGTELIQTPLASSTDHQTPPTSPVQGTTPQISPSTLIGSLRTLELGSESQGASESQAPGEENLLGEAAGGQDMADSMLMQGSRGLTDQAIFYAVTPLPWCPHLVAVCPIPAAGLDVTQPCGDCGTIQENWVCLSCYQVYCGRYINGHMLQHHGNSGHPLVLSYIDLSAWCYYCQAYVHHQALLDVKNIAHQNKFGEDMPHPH

THP-1 [4] = test: Antiproliferative activity against human THP-1 cells assessed as reduction in cell viability at 100 uM incubated for 72 hrs by MTT assay relative to control; assay type: functional
THP-1 [5] = test: cells; conditions: Homo sapiens, THP-1, 72 h
Description: Antiproliferative activity against human THP-1 cells assessed as inhibition of cell growth incubated for 72 hrs by MTT assay

Histone deacetylase 4 = Histone deacetylase 4 (Homo sapiens, UniProt P56524); test: Inhibition of human recombinant TEV-8His-tagged HDAC4 (648 to 1057 residues) expressed in Escherichia coli (DE3) Rosetta cells using Boc-Lys-(Tfa)-AMC as substrate preincubated for 5 mins followed by substrate addition and measured after 90 mins by fluorescence based microplate reader analysis
THP-1 [6] = test: Inhibition of Class IIa/8 HDAC in human THP-1 cells at 100 uM preincubated for 18 hrs followed by substrate addition and measured after 3 hrs by fluorescence based microplate reader assay relative to control; assay type: cell-based; conditions: time 21.0 hrs, values are per cent of control
Histone deacetylase 8 = target: T2, Histone deacetylase 8 (Homo sapiens, UniProt Q9BY41); test: Inhibition of human recombinant HDAC8 using Boc-Lys-(Tfa)-AMC as substrate preincubated for 5 mins followed by substrate addition and measured after 90 mins by fluorescence based microplate reader analysis
T2 sequence (Q9BY41 whole entry): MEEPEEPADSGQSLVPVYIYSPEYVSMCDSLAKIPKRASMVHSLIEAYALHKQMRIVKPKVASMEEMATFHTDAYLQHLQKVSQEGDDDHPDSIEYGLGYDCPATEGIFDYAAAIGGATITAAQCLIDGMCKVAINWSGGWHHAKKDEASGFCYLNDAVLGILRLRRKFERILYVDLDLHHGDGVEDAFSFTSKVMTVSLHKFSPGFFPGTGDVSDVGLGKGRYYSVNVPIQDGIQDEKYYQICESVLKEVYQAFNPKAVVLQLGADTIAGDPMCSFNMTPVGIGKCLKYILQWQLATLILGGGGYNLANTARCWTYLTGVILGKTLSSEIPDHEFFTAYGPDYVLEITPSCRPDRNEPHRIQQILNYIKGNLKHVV

[7] = Inhibition of Class IIa/8 HDAC in human THP-1 cells preincubated for 18 hrs followed by substrate addition and measured after 3 hrs by fluorescence based microplate reader assay; assay type: cell-based
Histone deacetylase 3 = Histone deacetylase 3 (Homo sapiens, UniProt O15379); test: Inhibition of HDAC3 (unknown origin)
Histone deacetylase 11 = target: T3, Histone deacetylase 11 (Homo sapiens, UniProt Q96DB2); test: Inhibition of HDAC11 (unknown origin)
T3 sequence (Q96DB2 whole entry): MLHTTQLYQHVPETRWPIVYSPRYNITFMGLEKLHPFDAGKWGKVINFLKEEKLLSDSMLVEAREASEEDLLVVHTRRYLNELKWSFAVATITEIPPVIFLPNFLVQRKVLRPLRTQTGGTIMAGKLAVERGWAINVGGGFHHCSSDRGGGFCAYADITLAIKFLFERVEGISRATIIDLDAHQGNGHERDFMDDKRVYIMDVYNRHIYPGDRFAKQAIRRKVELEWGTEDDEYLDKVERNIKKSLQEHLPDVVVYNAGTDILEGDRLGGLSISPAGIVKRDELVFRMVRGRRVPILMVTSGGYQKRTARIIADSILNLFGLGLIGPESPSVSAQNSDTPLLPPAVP

Histone deacetylase 5 = Histone deacetylase 5 (Homo sapiens, UniProt Q9UQL6); test: Inhibition of HDAC5 (unknown origin)
Histone deacetylase 1 = Histone deacetylase 1 (Homo sapiens, UniProt Q13547); test: Inhibition of HDAC1 (unknown origin)
CAL-27 [8] = test: Antiproliferative activity against human CAL-27 cells overexpressing HDAC4 assessed as inhibition of cell growth incubated for 72 hrs by MTT assay; assay type: functional, cell-based; conditions: CAL-27, 72 h
CAL-27 [9] = test: Antiproliferative activity against human CAL-27 cells without HDAC4 expression assessed as inhibition of cell growth incubated for 72 hrs by MTT assay; assay type: functional, cell-based; conditions: CAL-27, 72 h

Histone deacetylase 4, sequence (P56524 whole entry, the tested form may be a part): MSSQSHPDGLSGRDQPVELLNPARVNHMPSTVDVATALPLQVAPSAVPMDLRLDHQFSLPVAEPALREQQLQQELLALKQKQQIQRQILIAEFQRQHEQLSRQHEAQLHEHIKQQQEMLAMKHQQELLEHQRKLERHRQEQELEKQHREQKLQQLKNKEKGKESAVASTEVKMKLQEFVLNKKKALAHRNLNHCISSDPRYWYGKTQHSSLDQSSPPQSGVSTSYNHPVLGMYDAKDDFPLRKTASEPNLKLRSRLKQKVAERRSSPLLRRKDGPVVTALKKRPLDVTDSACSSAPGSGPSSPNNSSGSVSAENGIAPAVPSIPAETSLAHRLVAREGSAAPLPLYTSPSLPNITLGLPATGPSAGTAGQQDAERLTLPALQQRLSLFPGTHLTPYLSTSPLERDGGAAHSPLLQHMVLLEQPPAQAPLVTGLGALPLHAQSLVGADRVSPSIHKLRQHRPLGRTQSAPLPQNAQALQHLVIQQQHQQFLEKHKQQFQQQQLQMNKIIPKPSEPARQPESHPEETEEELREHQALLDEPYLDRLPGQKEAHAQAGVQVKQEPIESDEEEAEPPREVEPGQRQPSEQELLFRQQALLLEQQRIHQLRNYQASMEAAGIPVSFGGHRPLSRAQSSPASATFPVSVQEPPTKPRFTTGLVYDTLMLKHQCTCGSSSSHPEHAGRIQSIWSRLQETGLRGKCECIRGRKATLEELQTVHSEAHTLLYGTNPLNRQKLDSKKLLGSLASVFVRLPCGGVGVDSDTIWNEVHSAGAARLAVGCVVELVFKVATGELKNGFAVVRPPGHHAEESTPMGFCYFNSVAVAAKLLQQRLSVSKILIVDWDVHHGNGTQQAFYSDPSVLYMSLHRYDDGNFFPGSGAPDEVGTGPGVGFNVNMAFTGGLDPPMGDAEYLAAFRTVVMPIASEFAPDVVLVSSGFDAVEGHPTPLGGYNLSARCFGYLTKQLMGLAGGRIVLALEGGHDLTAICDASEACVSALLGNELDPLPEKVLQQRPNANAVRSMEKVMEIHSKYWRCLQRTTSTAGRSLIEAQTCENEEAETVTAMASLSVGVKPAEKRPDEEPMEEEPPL
Histone deacetylase 2, sequence (Q92769 whole entry): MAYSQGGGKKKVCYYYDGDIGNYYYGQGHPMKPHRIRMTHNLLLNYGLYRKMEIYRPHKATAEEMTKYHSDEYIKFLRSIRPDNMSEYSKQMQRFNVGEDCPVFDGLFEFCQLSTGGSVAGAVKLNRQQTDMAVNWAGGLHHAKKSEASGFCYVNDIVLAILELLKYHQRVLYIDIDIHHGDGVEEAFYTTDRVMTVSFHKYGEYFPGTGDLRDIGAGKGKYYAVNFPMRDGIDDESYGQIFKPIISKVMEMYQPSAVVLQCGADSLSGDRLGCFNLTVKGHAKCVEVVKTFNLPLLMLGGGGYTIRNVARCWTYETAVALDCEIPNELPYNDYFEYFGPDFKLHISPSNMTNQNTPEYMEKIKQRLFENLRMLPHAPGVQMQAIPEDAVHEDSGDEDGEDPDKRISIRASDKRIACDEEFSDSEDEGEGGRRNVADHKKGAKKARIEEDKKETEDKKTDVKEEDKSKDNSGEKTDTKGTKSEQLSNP
Histone deacetylase 5, sequence (Q9UQL6 whole entry): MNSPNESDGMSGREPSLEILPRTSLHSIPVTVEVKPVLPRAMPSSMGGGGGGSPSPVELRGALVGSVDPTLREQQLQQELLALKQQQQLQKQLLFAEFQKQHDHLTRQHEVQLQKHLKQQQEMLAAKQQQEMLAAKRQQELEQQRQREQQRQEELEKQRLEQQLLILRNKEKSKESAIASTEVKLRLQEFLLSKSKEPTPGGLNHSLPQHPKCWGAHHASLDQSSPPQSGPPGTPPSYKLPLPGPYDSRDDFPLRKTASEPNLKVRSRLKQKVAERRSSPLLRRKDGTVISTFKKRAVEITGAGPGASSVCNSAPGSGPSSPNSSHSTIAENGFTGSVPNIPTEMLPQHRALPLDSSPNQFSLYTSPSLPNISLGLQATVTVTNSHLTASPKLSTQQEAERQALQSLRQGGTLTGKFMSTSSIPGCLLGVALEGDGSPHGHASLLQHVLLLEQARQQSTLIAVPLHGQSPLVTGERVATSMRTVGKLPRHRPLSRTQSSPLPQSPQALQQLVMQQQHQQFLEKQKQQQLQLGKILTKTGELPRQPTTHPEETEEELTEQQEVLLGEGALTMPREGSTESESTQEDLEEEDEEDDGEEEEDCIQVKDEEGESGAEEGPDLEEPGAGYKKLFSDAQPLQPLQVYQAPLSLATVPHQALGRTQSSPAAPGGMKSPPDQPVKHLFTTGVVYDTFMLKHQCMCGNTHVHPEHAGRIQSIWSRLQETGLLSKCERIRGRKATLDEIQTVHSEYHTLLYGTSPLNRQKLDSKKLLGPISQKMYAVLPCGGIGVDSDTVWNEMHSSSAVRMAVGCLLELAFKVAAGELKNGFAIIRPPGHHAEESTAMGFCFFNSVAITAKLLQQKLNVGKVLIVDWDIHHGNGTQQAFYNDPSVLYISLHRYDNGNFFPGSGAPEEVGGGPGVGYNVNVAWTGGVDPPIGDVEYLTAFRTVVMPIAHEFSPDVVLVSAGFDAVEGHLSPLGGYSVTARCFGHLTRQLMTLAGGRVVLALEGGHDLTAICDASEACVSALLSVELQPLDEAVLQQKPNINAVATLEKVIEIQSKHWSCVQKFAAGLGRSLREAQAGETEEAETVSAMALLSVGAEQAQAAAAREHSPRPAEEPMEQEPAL
Histone deacetylase 3, sequence (O15379 whole entry): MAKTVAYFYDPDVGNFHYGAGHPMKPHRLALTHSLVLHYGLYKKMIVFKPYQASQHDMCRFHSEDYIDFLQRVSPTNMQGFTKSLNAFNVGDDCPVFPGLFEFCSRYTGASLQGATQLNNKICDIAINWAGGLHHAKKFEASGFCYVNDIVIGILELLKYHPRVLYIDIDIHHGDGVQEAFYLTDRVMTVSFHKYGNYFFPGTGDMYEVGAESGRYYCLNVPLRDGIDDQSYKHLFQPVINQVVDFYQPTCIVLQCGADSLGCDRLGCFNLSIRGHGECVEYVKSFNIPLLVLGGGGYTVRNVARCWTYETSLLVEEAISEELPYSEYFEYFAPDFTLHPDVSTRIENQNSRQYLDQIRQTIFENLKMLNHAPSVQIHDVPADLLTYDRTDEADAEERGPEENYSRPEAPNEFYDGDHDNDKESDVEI
Histone deacetylase 1, sequence (Q13547 whole entry): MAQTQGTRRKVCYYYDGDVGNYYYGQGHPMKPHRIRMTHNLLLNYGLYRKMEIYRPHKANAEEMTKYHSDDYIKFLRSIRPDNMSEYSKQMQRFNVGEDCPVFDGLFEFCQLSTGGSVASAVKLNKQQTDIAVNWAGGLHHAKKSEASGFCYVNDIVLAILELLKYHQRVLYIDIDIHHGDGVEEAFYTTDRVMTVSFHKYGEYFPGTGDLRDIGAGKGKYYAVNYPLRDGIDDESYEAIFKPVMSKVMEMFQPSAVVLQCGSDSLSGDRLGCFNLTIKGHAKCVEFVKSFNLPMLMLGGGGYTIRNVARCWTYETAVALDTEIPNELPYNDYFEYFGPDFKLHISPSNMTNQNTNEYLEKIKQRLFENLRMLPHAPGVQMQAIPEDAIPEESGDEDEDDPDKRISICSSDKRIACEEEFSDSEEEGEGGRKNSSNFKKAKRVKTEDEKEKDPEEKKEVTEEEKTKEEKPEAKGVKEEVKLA

SMILES	IC50 (Histone deacetylase 2) [µM]	IC50 [2] [µM]	IC50 [3] [µM]	IC50 (THP-1 [5]) [µM]	IC50 (Histone deacetylase 4) [µM]	IC50 (Histone deacetylase 8) [µM]	IC50 [7] [µM]	IC50 (Histone deacetylase 3) [µM]	IC50 (Histone deacetylase 11) [µM]	IC50 (Histone deacetylase 5) [µM]	IC50 (Histone deacetylase 1) [µM]	inhibition (THP-1 [1]) [%]	Activity (THP-1 [4]) [%]	residual activity (THP-1 [6]) [%]	IC50 (CAL-27 [8]) [µM]	IC50 (CAL-27 [9]) [µM]
CCN(CC)CCN(C)C(=O)c1ccc(-c2noc(C(F)(F)F)n2)cc1	34.8	14	16.9	> 100	0.198	10.8	1.27					65	31	98		
CN(Cc1ccccc1)C(=O)c1ccc(-c2noc(C(F)(F)F)n2)cc1	8.13	29.1	2.03	> 100	0.025	> 100	0.54	6.86	> 100	0.154	14.6	78	34	117		
CN(C(=O)c1ccc(-c2noc(C(F)(F)F)n2)cc1)c1ccccc1	> 100	> 100	19.6	> 100	0.75	71.8	6.39					31	33	118		
O=C(CCCCCCC(=O)Nc1ccccc1)NO [VORINOSTAT]													97			
CN1CCN(C(=O)c2ccc(-c3noc(C(F)(F)F)n3)cc2)CC1	80	> 100	55.4	> 100	1.18	16.1	5.51					23	39	103		
O=C(NO)C(c1ccc(-c2ncc(C(F)(F)F)cn2)cc1)c1ccccc1F (configuration not stated)															12.8	9.69

Further lines, with some results ahead:

IC50 (Histone deacetylase 2) [µM]	IC50 [2] [µM]	IC50 [3] [µM]	IC50 (THP-1 [5]) [µM]	IC50 (Histone deacetylase 4) [µM]	IC50 (Histone deacetylase 8) [µM]	IC50 [7] [µM]	IC50 (Histone deacetylase 3) [µM]	IC50 (Histone deacetylase 11) [µM]	IC50 (Histone deacetylase 5) [µM]	IC50 (Histone deacetylase 1) [µM]	SMILES	inhibition (THP-1 [1]) [%]	Activity (THP-1 [4]) [%]	residual activity (THP-1 [6]) [%]	IC50 (CAL-27 [8]) [µM]	IC50 (CAL-27 [9]) [µM]
			0.001								Cc1[nH]c2ccccc2c1CCNCc1ccc(/C=C/C(=O)NO)cc1 [PANOBINOSTAT]		96			
> 100	> 100	> 100	47.3	5.54	> 100	> 100					O=C(Nc1cnc2ccccc2c1)c1ccc(-c2noc(C(F)(F)F)n2)cc1	0	63	18		
25.4	13.7	5.61	~100	0.139	6.72	1.17					CCN(CC)CCCCNC(=O)c1ccc(-c2noc(C(F)(F)F)n2)cc1	73	47	102		
> 100		> 100	~100	0.69	> 100	14.5					O=C(NCCc1c[nH]c2ccccc12)c1ccc(-c2noc(C(F)(F)F)n2)cc1	64	49	97		
> 100	> 100	> 100	~100	0.94	> 100	5.51					CN(C)c1ccc(CNC(=O)c2ccc(-c3noc(C(F)(F)F)n3)cc2)cc1	25	49	103		
9.77	> 100	18.1	~100	0.141	7.13	0.429	2.36	> 100	0.151	2.21	O=C(NOCCN1CCOCC1)c1ccc(-c2noc(C(F)(F)F)n2)cc1	41	47	100		
